This note sets out measurements from ChEMBL document CHEMBL3758126, “Synthesis of 4-sulfamoylphenyl-benzylamine derivatives with inhibitory activity against human carbonic anhydrase isoforms I, II, IX and XII” (Bioorg Med Chem, 2016).

For test [1], the target named is Carbonic anhydrase 1 (Homo sapiens, UniProt P00915).
Description: Inhibition of human recombinant carbonic anhydrase 1 preincubated for 15 mins by stopped-flow CO2 hydrase assay
The target in test [2] is Carbonic anhydrase 12 (Homo sapiens, UniProt O43570).
Description: Inhibition of human recombinant carbonic anhydrase 12 preincubated for 15 mins by stopped-flow CO2 hydrase assay
Test [3] deals with Carbonic anhydrase 9 (Homo sapiens, UniProt Q16790).
Description: Inhibition of human recombinant carbonic anhydrase 9 preincubated for 15 mins by stopped-flow CO2 hydrase assay

Carbonic anhydrase 1, sequence (P00915 whole entry): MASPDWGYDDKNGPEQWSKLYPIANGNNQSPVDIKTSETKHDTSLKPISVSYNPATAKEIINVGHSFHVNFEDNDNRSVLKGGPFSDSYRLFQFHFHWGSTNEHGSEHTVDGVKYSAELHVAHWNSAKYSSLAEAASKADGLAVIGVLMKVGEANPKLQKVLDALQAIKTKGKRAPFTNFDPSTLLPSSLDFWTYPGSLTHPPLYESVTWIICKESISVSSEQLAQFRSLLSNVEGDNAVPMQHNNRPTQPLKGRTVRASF
Carbonic anhydrase 12, sequence (O43570 whole entry): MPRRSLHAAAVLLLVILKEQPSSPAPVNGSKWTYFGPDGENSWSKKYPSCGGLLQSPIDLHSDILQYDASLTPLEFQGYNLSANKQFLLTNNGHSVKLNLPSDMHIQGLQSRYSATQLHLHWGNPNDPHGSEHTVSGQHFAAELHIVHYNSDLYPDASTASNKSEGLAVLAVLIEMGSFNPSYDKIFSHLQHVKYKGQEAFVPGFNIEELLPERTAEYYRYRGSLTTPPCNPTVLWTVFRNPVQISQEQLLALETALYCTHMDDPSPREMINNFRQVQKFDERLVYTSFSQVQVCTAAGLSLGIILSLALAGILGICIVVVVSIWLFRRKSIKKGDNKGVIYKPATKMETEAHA

What is called Ki is a dissociation constant, usually derived from enzyme kinetics or from competition with a known ligand. As to `COc1ccc(CNc2ccc(S(N)(=O)=O)cc2)cc1`, the Ki in test [1] turned out to be 21.9 nM; in test [2], 427 nM; in test [3], 2.2 nM.

For the compound `NS(=O)(=O)c1ccc(NCc2cc(Cl)ccc2O)cc1`, the Ki in test [3] was 2.4 nM.

Regarding `CN(C)c1ccc(/C=N/c2ccc(S(N)(=O)=O)cc2)cc1`, the inhibition constant Ki in test [1] was 421 nM; in test [2] it was 8.8 nM; in test [3], 41.5 nM.

With `COc1ccc(/C=N/c2ccc(S(N)(=O)=O)cc2)cc1`, the results for the Ki in test [1], in test [2] and in test [3] were greater than 50000 nM, 11.2 nM and 883 nM, respectively.

For the compound `Cc1ccc(CNc2ccc(S(N)(=O)=O)cc2)cc1`, in test [3], the inhibition constant Ki stood at 2.1 nM.

Consider `Cc1cccc(/C=N/c2ccc(S(N)(=O)=O)cc2)c1O`, for which, in test [3], the Ki came out at 465 nM.

Regarding `Cc1cccc(CNc2ccc(S(N)(=O)=O)cc2)c1O`, the inhibition constant (Ki) in test [3] is 2.3 nM.

In the case of `NS(=O)(=O)c1ccc(NCc2cc(Cl)cc(Cl)c2O)cc1`, in test [3], the affinity, expressed as Ki, was 2.2 nM.

In turn, `NS(=O)(=O)c1ccc(NCc2ccccc2O)cc1` registered a Ki in test [3] of 2.9 nM.

Compound `NS(=O)(=O)c1ccc(/N=C/c2cc(Cl)cc(Cl)c2O)cc1` had a Ki in test [3] of 35.6 nM.

With `NS(=O)(=O)c1ccc(/N=C/c2ccc(OCc3ccccc3)cc2)cc1`, the Ki in test [1] was greater than 50000 nM; in test [3], 36 nM.

In the case of `NS(=O)(=O)c1ccc(/N=C/c2cc(Br)ccc2O)cc1`, affinity in test [3] was put at a Ki of 257 nM.

For `NS(=O)(=O)c1ccc(/N=C/c2cc(Br)cc(Br)c2O)cc1`, the inhibitory constant (Ki) is greater than 50000 nM in test [1] and 360 nM in test [3].

On to `NS(=O)(=O)c1ccc(NCc2ccc(OCc3ccccc3)cc2)cc1`, for which the affinity in test [3], expressed as Ki, was 2.5 nM.

In the case of `NS(=O)(=O)c1ccc(NCc2cc(Br)cc(Br)c2O)cc1`, affinity in test [3] was put at a Ki of 2.3 nM.

Turning to `NS(=O)(=O)c1ccc(/N=C/c2cc(Cl)ccc2O)cc1`, the inhibition constant Ki in test [1] is greater than 50000 nM; in test [3], 47.9 nM.

For the compound `CN(C)c1ccc(CNc2ccc(S(N)(=O)=O)cc2)cc1`, the inhibition constant (Ki) in test [2] is greater than 50000 nM; in test [3], 2.4 nM.

In turn, `NS(=O)(=O)c1ccc(/N=C/c2ccccc2O)cc1` showed a Ki in test [3] of 952 nM.

As for `NS(=O)(=O)c1ccc(/N=C/c2ccccc2)cc1`, the Ki in test [1] was greater than 50000 nM; in test [2], 11.1 nM; in test [3] it was 454 nM.

With `Cc1ccc(/C=N/c2ccc(S(N)(=O)=O)cc2)cc1`, the inhibition constant Ki was greater than 50000 nM in test [1] and 9.9 nM in test [2].
